Assay results from US11370774B2, “Substituted benzofuran, benzopyrrole, benzothiophene, and structurally related complement inhibitors” (BioCryst Pharmaceuticals, Inc., priority 2018, dated 2022).

Target: Factor D (Homo sapiens (Human), UniProt P00746)
Assay: Factor D esterolytic assay (Z-Lys-SBzl substrate, DTNB, 405 nm)
Assay type: biochemical
Conditions: Z-Lys-SBzl 1.29 mM, pH 7.5, 10% DMSO, tested a minimum of three times, read-out: Measured Ki (IC50) Value for Compounds: IC50
Description: The IC50 value of a compound (i.e., the concentration of the compound that inhibits 50% of the enzymatic activity) was calculated according to the procedure reported in U.S. Pat. No. 6,653,340 B1, e.g., column 74 (incorporated by reference).
Specifically, the compounds were dissolved in a stock solution of DMSO at 10.0 or 100 mM. A portion of this stock solution was added to assay buffer in a final volume of 50 μL. Controls included buffer alone and enzyme solutions to which DMSO was added. Substrate was added to the reaction wells immediately or after incubation at room temperature. The reaction rates were measured spectrophotometrically by the generation of product at 405 nm for 600 sec. Background absorbance at 690 nm was measured and subtracted from the absorbance at 405 nm for each well.
The reaction rate for enzyme alone was compared to the rate of enzyme in the presence of inhibitor and the percent inhibition was calculated as shown below: Percent Inhibition=[Rate without inhibitor−Rate with inhibitor)/(Rate without inhibitor)]×100 Factor D Esterolytic Assay:
An established esterolytic assay for the measurement of Factor D activity and inhibition of Factor D activity was used (Kam, C. M.; McRae, B. J.; Harper, J. W.; Niemann, M. A.; Volanakis, J. E.; Powers, J. C. Human complement proteins D, C2, and B Active site mapping with peptide thioester substrates. J Biol. Chem. 1987, 262, 3444-3451). For this assay Z-Lys-SBzl, 1.29 mM (Kim, S.; Narayana, S. V. L; Volanakis, J. E. Mutational analysis of the substrate binding site of human complement Factor D. Biochemistry. 1994, 33, 14393-14399.) was used as the substrate for Factor D ([…]). Hydrolysis of this compound by Factor D liberated a free sulfhydryl group which is then reacted with 5,5′-dithiobis(2nitrobenzoic acid) producing an intense yellow color (Habeeb, A. F. S. A. Reaction of protein sulfhydryl groups with Ellman's Reagent. Methods in Enzymol. 1976, 25, 457-464). The assays were performed in 96 well microtiter plates and rates of hydrolysis were monitored at 405 nm on a Biotek Synergy H1 plate reader. Hydrolysis rates were reported as change in mOD/min. The assay was conducted in 100 mM HEPES, 500 mM NaCl, pH 7.5 containing 10% DMSO in a final volume of 50 μL per well.
An IC50, a compound concentration which inhibits 50% of the enzymatic activity, was calculated. Compounds in the examples were tested a minimum of three times.

Chain of Factor D (P00746 26-253): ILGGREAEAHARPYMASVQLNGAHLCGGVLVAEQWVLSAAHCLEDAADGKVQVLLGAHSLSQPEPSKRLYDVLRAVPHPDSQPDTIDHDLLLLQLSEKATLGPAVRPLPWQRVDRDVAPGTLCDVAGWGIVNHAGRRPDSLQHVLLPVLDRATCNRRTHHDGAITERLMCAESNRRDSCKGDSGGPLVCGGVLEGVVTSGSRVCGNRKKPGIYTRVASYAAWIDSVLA

Compound | IC50 [nM]
NCc1cccc(-c2cc(COc3ccccc3CC(=O)O)cc3ccsc23)c1F [Compound 247b, 2-(2-((7-(3-(aminomethyl)-2-fluorophenyl)benzo[b]thiophen-5-yl)methoxy)phenyl)acetic acid] | < 1000
Cc1ccc(CC(=O)O)c(OCc2cc(-c3ccnc(CN)c3)c3occ(C(F)(F)F)c3c2)c1 [Compound 379c, 2-(2-((7-(2-(aminomethyl)pyridin-4-yl)-3-(trifluoromethyl)benzofuran-5-yl)methoxy)-4-methylphenyl)acetic acid] | < 1000
CN1CCC(N(C)Cc2cc3cc(COc4ccccc4CC(=O)O)cc(-c4cccc(CN)c4)c3o2)CC1 [Compound 210c, 2-(2-((7-(3-(aminomethyl)phenyl)-2-((methyl(1-methylpiperidin-4-yl)amino)methyl)benzofuran-5-yl)methoxy)phenyl)acetic acid] | < 1000
NCc1cccc(-c2cc(COc3cc(CC4CC4)ccc3CC(=O)O)cc3ccoc23)c1 [Compound 261c, 2-(2-((7-(3-(aminomethyl)phenyl)benzofuran-5-yl)methoxy)-4-(cyclopropylmethyl)phenyl)acetic acid] | < 1000
NCc1cccc(-c2cc(COc3c(CC(=O)O)ccc4ccoc34)cc3ccoc23)c1 [Compound 392g, 2-(7-((7-(3-(aminomethyl)phenyl)benzofuran-5-yl)methoxy)benzofuran-6-yl)acetic acid] | < 1000
Cc1cccc(CC(=O)O)c1OCc1cc(-c2cccc(CN)c2)c2occc2c1 [Compound 274g, 2-(2-((7-(3-(aminomethyl)phenyl)benzofuran-5-yl)methoxy)-3-methylphenyl)acetic acid] | < 1000
NCc1cccc(-c2cc(NC(=O)[C@@H]3CCC[C@H]3C(=O)NCc3cccc(Cl)c3F)cc3ccoc23)c1 (relative stereo) [Compound 217e, (trans)-N1-(7-(3-(aminomethyl)phenyl)benzofuran-5-yl)-N2-(3-chloro-2-fluorobenzyl)cyclopentane-1,2-dicarboxamide] | < 1000
NCc1cccc(-c2cc(COc3ccccc3CC(=O)O)cc3cc(Cl)oc23)c1 [Compound 169f, 2-(2-((7-(3-(aminomethyl)phenyl)-2-chlorobenzofuran-5-yl)methoxy)phenyl)acetic acid] | < 1000
COc1ccc(CC(=O)O)c(NC(=O)c2nc(-c3cccc(CN)c3)nn3cccc23)c1 [Compound 42d, 2-(2-(2-(3-(aminomethyl)phenyl)pyrrolo[2,1-f][1,2,4]triazine-4-carboxamido)-4-methoxyphenyl)acetic acid] | < 1000
NCc1cccc(-c2cc(COc3ccccc3CC(=O)O)cc3ccsc23)c1 [Compound 214f, 2-(2-((7-(3-(aminomethyl)phenyl)benzo[b]thiophen-5-yl)methoxy)phenyl)acetic acid] | < 1000
NCc1cccc(-c2cc(COc3ccccc3CC(=O)O)cc3[nH]c(C(F)(F)F)cc23)c1 [Compound 332e, 2-(2-((4-(3-(aminomethyl)phenyl)-2-(trifluoromethyl)-1H-indol-6-yl)methoxy)phenyl)acetic acid] | < 1000
NCc1cc(-c2cc(COc3cc(F)ccc3CC(=O)O)c(F)c3ccoc23)ccn1 [Compound 503c, 2-(2-((7-(2-(aminomethyl)pyridin-4-yl)-4-fluorobenzofuran-5-yl)methoxy)-4-fluorophenyl)acetic acid] | < 1000
NCc1cc(-c2cc(COc3ccccc3CC(=O)O)cc3ccoc23)ccn1 [Compound 74c, 2-(2-((7-(2-(aminomethyl)pyridin-4-yl)benzofuran-5-yl)methoxy)phenyl)acetic acid] | < 1000
CC(C)(C)c1cc(OCc2cc(-c3cccc(CN)c3)c3occc3c2)c(CC(=O)O)cc1Cl [Compound 308h, 2-(2-((7-(3-(aminomethyl)phenyl)benzofuran-5-yl)methoxy)-4-(tert-butyl)-5-chlorophenyl)acetic acid] | < 1000
NCc1cccc(-c2cc(COc3ccccc3CC(=O)O)cc3occc23)c1F [Compound 122b, 2-(2-((4-(3-(aminomethyl)-2-fluorophenyl)benzofuran-6-yl)methoxy)phenyl)acetic acid] | < 1000
NCc1cccc(-c2cc(COc3ccccc3CC(=O)O)cc3cc(C4CC4)oc23)c1 [Compound 55g, 2-(2-((7-(3-(aminomethyl)phenyl)-2-cyclopropylbenzofuran-5-yl)methoxy)phenyl)acetic acid] | < 1000

Compound | IC50 [nM]
NCc1cccc(-c2cc(COc3ccccc3C(=O)O)cc3ccoc23)c1 [Compound 293c, 2-((7-(3-(aminomethyl)phenyl)benzofuran-5-yl)methoxy)benzoic acid] | < 1000
NCc1cc(-c2cc(COc3ccccc3CC(=O)O)cc3c2ccn3CC2CC2)ccn1 [Compound 155c, 2-(2-((4-(2-(aminomethyl)pyridin-4-yl)-1-(cyclopropylmethyl)-1H-indol-6-yl)methoxy)phenyl)acetic acid] | < 1000
COc1cccc(CC(=O)O)c1OCc1cc(-c2ccnc(CN)c2)c2occc2c1 [Compound 512d, 2-(2-((7-(2-(aminomethyl)pyridin-4-yl)benzofuran-5-yl)methoxy)-3-methoxyphenyl)acetic acid] | < 1000
COCc1cc2cc(COc3cc(F)ccc3CC(=O)O)cc(-c3cccc(CN)c3F)c2o1 [Compound 478b, 2-(2-((7-(3-(aminomethyl)-2-fluorophenyl)-2-(methoxymethyl)benzofuran-5-yl)methoxy)-4-fluorophenyl)acetic acid] | < 1000
NCc1cc(-c2cc(COc3ccccc3CC(=O)O)cc3ccoc23)cs1 [Compound 339c, 2-(2-((7-(5-(aminomethyl)thiophen-3-yl)benzofuran-5-yl)methoxy)phenyl)acetic acid] | < 1000
NCc1cccc(-c2cc(COc3ccccc3CC(=O)O)cc3c2ccn3S(=O)(=O)C2CC2)c1F [Compound 213b, 2-(2-((4-(3-(aminomethyl)-2-fluorophenyl)-1-(cyclopropylsulfonyl)-1H-indol-6-yl)methoxy)phenyl)acetic acid] | < 1000
NCc1cccc(-c2cc(C(=O)Nc3ccccc3CC(=O)O)cc3c2cnn3CC2CC2)c1 [Compound 10d, 2-(2-(4-(3-(aminomethyl)phenyl)-1-(cyclopropylmethyl)-1H-indazole-6-carboxamido)phenyl)acetic acid] | < 1000
CC(C)S(=O)(=O)n1ccc2c(-c3cccc(CN)c3F)cc(COc3ccccc3CC(=O)O)cc21 [Compound 229b, 2-(2-((4-(3-(aminomethyl)-2-fluorophenyl)-1-(isopropylsulfonyl)-1H-indol-6-yl)methoxy)phenyl)acetic acid] | < 1000
NCc1cccc(-c2nc(C(=O)Nc3ccccc3CC(=O)O)nc3sccc23)c1 [Compound 32h, 2-(2-(4-(3-(aminomethyl)phenyl)thieno[2,3-d]pyrimidine-2-carboxamido)phenyl)acetic acid] | < 1000
NCc1cccc(-c2cc(C(=O)Nc3ccccc3CC(=O)O)cn3ccnc23)c1 [Compound 125c, 2-(2-(8-(3-(aminomethyl)phenyl)imidazo[1,2-a]pyridine-6-carboxamido)phenyl)acetic acid] | > 10000
NCc1cccc(-c2cc(COc3ccncc3CC(=O)O)cc3ccoc23)c1 [Compound 163d, 2-(4-((7-(3-(aminomethyl)phenyl)benzofuran-5-yl)methoxy)pyridin-3-yl)acetic acid] | < 1000
Nc1ccc2c(-c3cc(COc4ccccc4CC(=O)O)cc4ccoc34)ncnn12 [Compound 204e, 2-(2-((7-(7-aminopyrrolo[2,1-f][1,2,4]triazin-4-yl)benzofuran-5-yl)methoxy)phenyl)acetic acid] | > 10000
CCc1ccc(CC(=O)O)c(OCc2cc(-c3cccc(CN)c3)c3occc3c2)c1 [Compound 316b, 2-(2-((7-(3-(aminomethyl)phenyl)benzofuran-5-yl)methoxy)-4-ethylphenyl)acetic acid] | < 1000
NCc1cc(F)cc(-c2cc(C(=O)Nc3ccccc3CC(=O)O)cc3[nH]ccc23)c1 [Compound 19c, 2-(2-(4-(3-(aminomethyl)-5-fluorophenyl)-1H-indole-6-carboxamido)phenyl)acetic acid] | < 1000
NCc1cccc(-c2cc(COc3ccccc3CC(=O)O)cc3c2cnn3CC2CC2)c1F [Compound 127b, 2-(2-((4-(3-(aminomethyl)-2-fluorophenyl)-1-(cyclopropylmethyl)-1H-indazol-6-yl)methoxy)phenyl)acetic acid] | < 1000
